# Measurements from US8664276B2, “Stilbene analogs and methods of treating cancer” (University of Kentucky Research Foundation, priority 2011, dated 2014).
# How the values were obtained:
# [1] = tested on: LS174 tumor xenografts; experiment: LS174 tumor xenograft in nude mice; format: in vivo
# Experimental: Tumor xenograft in nude mice. LS174 or HT29 colon cancer cells (2×10^6) were injected subcutaneously into both flanks of 6-8 week C57BL/6J athymic nude mice as described in Zhang et al., Mol Cell Biol 2006, 26, 2055-2064. Compound 4r or 4dd was dissolved in corn oil or PEG400. The mice were treated with 20 mg/kg/day of 4r by ip injection or gavage (50 μl/mouse). Control mice were treated with same volume of corn oil or PEG400. The body weight and tumor growth were analyzed twice weekly for one month. Tumor size was measured using digital caliper. The tumor volume was calculated by the formula: V=½LW^2 (mm^3).
# In this example, the effects of the stilbene analogs of the present disclosure on CRC cells growth was analyzed. […] To test the effects of compound 4r on tumor growth in vivo, LS174 cells were injected subcutaneously into the flanks of athymic nude mice, which had been randomized into two groups. One group of mice was treated with compound 4r (20 mg/kg/day) dissolved in corn oil by intraperitoneal (ip) injection. The control mice were treated with the same volume of corn oil (50 μL) by ip injection. The mice were weighted and tumors measured twice weekly.
# [2] = tested on: β-catenin; experiment: β-catenin localization by immunofluorescence in LS174 cells; format: cell-based; conditions: 10 μM, 24 h, versus DMSO
# Experimental: Immunofluorescence. Cells grown on cover glass were fixed by 4% paraformaldehyde for 20 min at room temperature. The cells were permeabilized with PBS containing 0.3% (w/v) Triton X-100 and blocked by 5% normal goat serum in PBS for 30 min. Anti-β-catenin antibody (1:300, Sigma, St. Louis, Mo.) was diluted in blocking solution and incubated with cells overnight. The cells were washed 3 times with PBS and further incubated with Alexa-488-labeled anti-rabbit IgG (1:500) diluted in PBS for 40 min. The cover glasses were washed, mounted on glass slides, viewed and photographed with an Olympus FW1000 confocal microscope. Cells grown on cover glass were treated with fluorescent compounds for 2 h, 6 h, 12 h and 24 h respectively. Treated cells were fixed by 4% paraformaldehyde for 20 min at room temperature. Then cells were washed 3 times with PBS and mounted on glass slides, viewed under the fluorescence of 405 nm-wavelength and photographed with an Olympus FW1000 confocal microscope.
# Nevertheless, compound 4s lends itself well to a mechanistic study of the site of action of these compounds. LS174 cells were treated with 10 μM of compound 4s for 2 h, 6 h, 12 h, and 24 h. The cells were fixed and analyzed by confocal fluorescence microscopy. […] The cells were fixed and β-catenin localization analyzed by immunofluorescence. […]
# [3] = molecular target: MAT2A (Homo sapiens, UniProt P31153); experiment: In-vitro SAM synthesis by MAT2A (LC-MS/MS); format: biochemical; parameters: GST (N); made in house
# Experimental: SAM and SAH analysis by LC-MS/MS. The LC-MS/MS system consisted of two Varian ProStar 210 LC Pumps coupled with a Varian 1200L triple quadrupole mass spectrometer. The separation was performed on a Hypercarb column (50 mm×2.1 mm, […], Thermo Scientific #35003-052130). Gradient elution started with 98% solution A (0.1% formic acid in water), followed by an increase to 38% solution B (0.1% formic acid in acetonitrile) in 8 min. The column was than flushed with 90% B for 5 min and regenerated with 98% A for another 8 min. The flow rate was 0.25 mL/min. Between the 3rd and 11th min, the eluent was switched to the ion source of the mass spectrometer. The precursor product transitions for SAM (m/z 399→250), SAH (m/z 385→250) and [d-4]-SAH (m/z 389→136) were monitored. The optimized ion source parameters were: Capillary Voltage: 32 V for both SAM and SAH, Collision energy: 9 V and 7V for SAM and SAH, respectively, Needle voltage: 5000 V and the Shield voltage: 600V. Nitrogen was used as the drying gas at a temperature of 300° C. and the interface heater was set to 50° C. The drying gas and nebulizing gas were set to 20 and 50 psi, respectively.
# SAM synthesis. […] purified MAT2A was incubated with 1 mM L-methionine and 1 mM ATP in […] reaction solution (50 mM Tris.Cl, 50 mM KCl, 10 mM MgCl2) for 5 min at 25° C. […] SAM was analyzed by LC-MS/MS. […]
# Chain of MAT2A (P31153 whole entry): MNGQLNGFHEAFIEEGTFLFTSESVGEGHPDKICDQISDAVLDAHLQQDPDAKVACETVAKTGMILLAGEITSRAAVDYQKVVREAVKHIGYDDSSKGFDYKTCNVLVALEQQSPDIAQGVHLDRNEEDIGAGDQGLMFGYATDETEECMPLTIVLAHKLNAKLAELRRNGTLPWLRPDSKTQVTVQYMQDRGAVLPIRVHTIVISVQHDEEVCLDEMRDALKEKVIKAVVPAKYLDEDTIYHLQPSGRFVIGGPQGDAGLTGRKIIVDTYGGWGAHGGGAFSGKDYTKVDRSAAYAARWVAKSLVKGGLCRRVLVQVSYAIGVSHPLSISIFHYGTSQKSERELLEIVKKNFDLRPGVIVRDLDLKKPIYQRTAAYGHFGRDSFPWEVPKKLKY
smiles,measurement,setting,value
"CN(C)c1ccc(/C=C/c2c(F)cccc2F)cc1 [4r, (E)-4-(2,6-Difluorostyryl)-N,N-dimethylaniline]",body weight versus control mice,"[1]; 20 mg/kg/day ip in corn oil, within one month",no significant difference
same,growth of tumor xenografts,"[1]; LS174, 20 mg/kg/day ip in corn oil",significantly inhibited
same,nuclear β-catenin levels,[2],decreased
same,MAT2A activity in SAM synthesis,[3],inhibit MAT2A activity
